Results on 65 compounds are retold here after a melting point compilation (Tetko et al.; mined from patent text by program, amines drawn as free bases though some values may be those of a salt).

SMILES strings stand for the structures.

As a reminder, the melting point is the temperature of the solid-liquid transition.

The compound `COc1nc(NC(=O)NS(=O)(=O)c2c(C)cccc2OC)nc(OC)n1` returned a melting point of 163 °C.
The result for `COC(=O)C(=O)c1ccc(OCCOc2ccc(Cl)cc2)cc1` reads 103 to 105 °C; that for `COC(=O)C1c2c(C)c(OC(=O)c3ccc([N+](=O)[O-])cc3)c(C)c(C)c2OC1(C)C` (stereo not given), 215 to 216 °C.
As for `CC(C)(C)OC(=O)NC(Cc1ccc(C=O)cc1)C(=O)N1CCCC1` (stereo not given), the melting point was 134 °C.
In the case of `CCCN(CCC)CCc1ccc(O)c(N)c1` it was 127 to 151 °C.
In the case of `Clc1ccccc1N=Nc1ncc[nH]1`, the melting point lay within 173 to 177 °C.
In the case of `CCOC(=S)c1ccc(C)c(-c2cc(C)no2)c1C` it was 72 to 74 °C; in that of `CCCCCCCCCCCc1coc(N)n1`, 55 to 58 °C; in that of `O=C(O)Cc1cc(C(=O)C=Cc2ccccc2Cl)ccc1O`, 235 °C.
`COC(=O)CCc1conc1-c1ccc(Cl)c(Cl)c1` registered a melting point of 87 to 88 °C.
The result for `CCOC(=O)c1cc2cc(Br)ccc2s1` reads 94 to 95 °C.
The compound `COC(=O)CCc1cnc(C)s1` gave a melting point of 115 °C.
For `CNC(=O)C(=NO)c1ccccc1Oc1ccccc1`, the melting point was 183 to 184 °C.
In the case of `CCCCOc1ccc(S(C)(=O)=O)cc1C(=O)Nc1c(C(N)=O)nn(CCN2CCOCC2)c1CC`, the melting point was 182 to 185 °C.
The result for `CC(=O)Oc1c(C)c(C)c2c(c1C)C(O)CC(C)(COc1ccc([N+](=O)[O-])cc1)O2` (stereo not given) reads 139 to 141 °C.
In the case of `Clc1ccc(-c2cc(Cl)nc(Cl)n2)cc1` it was 130 to 132 °C; in that of `CCCCc1nc(O)cc(CC(=O)OC)n1`, 83 to 85 °C.
On to `CCCc1c(SC(=S)N(CC)CC)c2cc(Br)ccc2oc1=O`, for which the melting point is 135 to 137 °C.
Compound `O=C(CBr)c1ccc(Br)s1` registered a melting point of 79 °C.
In the case of `CCOC(=O)Cc1ccc(NC(=O)Nc2ccccc2)cc1` it was 153 to 155 °C; in that of `CCCOC(=O)c1cccc2c1S[C@@H](c1ccc(OC)cc1)[C@@H](OC(C)=O)C(=O)N2CCN(C)C` (racemic), 107 to 109 °C.
The result for `CS(=O)(=O)n1ccc2cc3c(cc21)C(C#N)C3` (stereo not given) reads 142 to 144 °C.
In turn, `Nc1nc(SCc2ccccn2)nc(Cl)c1Br` showed a melting point of 119 to 120 °C.
In the case of `Cc1ccn(-c2nc(Cl)c([N+](=O)[O-])s2)n1`, the melting point stood at 153 °C.
In the case of `Cc1c(O)c(C)c(Cc2cc(C(C)(C)C)c(O)c(C(C)(C)C)c2)c(C)c1Cc1cc(C(C)(C)C)c(O)c(C(C)(C)C)c1` it was 204 °C; in that of `CC[C@H](C)[C@H](NC(=O)[C@H](C)N(C(C)=O)C1CCCCC1)C(=O)N[C@@H](Cc1ccc2ccccc2c1)[C@@H](O)[C@@H](O)CC(C)C`, 192 to 194 °C.
The result for `CCNc1nc(Cl)c(C#N)c(NC(C)C)n1` reads 160 to 165 °C.
On to `COC(=O)c1ccc(-c2oc3cc(NS(C)(=O)=O)ccc3c(=O)c2OS(C)(=O)=O)cc1`, for which the melting point amounted to 250 °C.
`O=C1NCCN1Cc1c(Cl)cccc1Cl` registered a melting point of 156 to 158 °C.
The result for `Cn1c(=O)c2c(nc(Cl)n2Cc2ccccc2C#N)n(C)c1=O` reads 222 to 224 °C; that for `Cc1cc(C(C)(C)C)cc(CN)c1S`, 127 to 131 °C.
Turning to `Cc1nc(-c2ccc(C(F)(F)F)cc2)sc1CSc1ccc2c(c1)CC(C(=O)O)CO2` (stereo not given), the melting point is 139 to 140 °C.
The compound `COC(=O)C(Cc1cccs1)NC(=O)[C@H](Cc1cccc2ccccc12)NC(=O)OCc1ccccc1` (mixture of isomers) registered a melting point of 140 to 141 °C.
The result for `CN1CCC(O)(c2cc(F)cc(F)c2)C1` (stereo not given) reads 150 °C; that for `CCOC(=O)c1cc2cc(OCCCOC)cc(N)c2[nH]1`, 139 to 140 °C.
The result for `CNC1=NS(=O)N=C1NCCCN(Cc1ccccc1)c1ccccn1` (stereo not given) reads 122 to 123 °C; that for `CCCn1nnn(-c2ccc(N3CCN(c4ccc(OC)cc4)CC3)cc2)c1=O`, 190 °C.
In the case of `CC(=O)OC1CC2(C)C(=O)CCC2C2CC=C3CC(O)CCC3(C)C12` (stereo not given) it was 155 to 156 °C; in that of `COc1ccc(O)c(C(=O)N2CC(Oc3ccc(NC(=O)OC(C)(C)C)cc3)C2)c1`, 152 to 153 °C.
The compound `CC(=O)OCC(=O)C12OCOC1CC1C3CCC4=CC(=O)C=CC4(C)C3(F)C(O)CC12C` (stereo not given) displayed a melting point of 283 to 285 °C.
Compound `O=c1[nH]c(N2CCN(CCCCN3CCCCC3)CC2)cc2c(Br)cccc12` came in with a melting point of 165 to 166 °C.
For the compound `CN(C(CCN1C(=O)c2ccccc2C1=O)C(=O)NO)S(=O)(=O)c1ccc(Oc2ccc(F)cc2)cc1` (stereo not given), the melting point was in the range of 100 to 101 °C.
Turning to `Cc1ccccc1-c1c(C(=O)O)c(=O)n(C)c2ccc(Cl)cc12`, the melting point was 202 to 203 °C.
With `CC1(c2ccccc2)Cc2cc(OCC(=O)O)c(Cl)c(Cl)c2C1O` (stereo not given), the melting point fell in the range of 160 to 162 °C.
The result for `COc1ccc(C=Cc2nnc(C(F)(F)F)o2)cc1` reads 117 to 118 °C; that for `O=C1c2ccccc2S(=O)(=O)c2cc(C3=NCCN3)ccc21`, 241 to 242 °C; that for `FC(F)(F)CCN1CCN(Cc2ccc3c(c2)-c2[nH]nc(-c4ccsc4)c2C3)CC1`, 195 to 200 °C.
In the case of `CC(C)(C)c1cc(C(C)(CC(=O)NN)c2cc(C(C)(C)C)c(O)c(C(C)(C)C)c2)cc(C(C)(C)C)c1O` it was 172 °C; in that of `CC(C)(C)CC(C)(C)c1cc(Cc2cc(C(C)(C)CC(C)(C)C)cc(C(C)(C)CC(C)(C)C)c2O)c(O)c(-n2nc3ccccc3n2)c1`, 174 °C.
`CCOC(=O)c1cccc(-c2nc(-c3ccc(C(C)(C)C)cc3)cs2)c1` showed a melting point of 96 to 97 °C.
The compound `COC(=O)c1cc(O)c(O)c(OC)c1` registered a melting point of 110 to 111 °C.
Turning to `COC(=O)CCc1ccc(-n2c(C)cn(-c3ccc(C#N)cc3)c2=O)cc1`, the melting point fell in the range of 168 to 170 °C.
The result for `CC1C(O)CCC2CC3(CCC21)OCCO3` (stereo not given) reads 56 to 68 °C; that for `c1ccc(-c2onc3ccc(Oc4ccc5noc(-c6ccccc6)c5c4)cc23)cc1`, 158 to 165 °C.
The compound `C=C(CN(C)C)C(O)c1ncc2c(c1O)COC2(C)c1ccccc1` (stereo not given) showed a melting point of 178 to 179 °C.
In the case of `CC(=O)NC(C)CCC1CCC(n2cc3ccc(OCC4CC4)cc3n2)CC1` (stereo not given) it was 139 to 140 °C; in that of `CCOC(=O)C1(Cl)C(=O)N2CCOc3cc(Cl)cc1c32` (stereo not given), 147 to 148 °C; in that of `Cc1cc(C)c2nccn2n1`, 70 to 74 °C.
The result for `OCc1ccc2ccc3c4ccccc4ccc3c2c1` reads 187 to 189 °C; that for `Cc1cc(Oc2ccc([N+](=O)[O-])cc2)c2cc3c(cc2n1)OCO3`, 210 to 212 °C.
As for `C(=Nc1cccc2ccccc12)=Nc1cccc2ccccc12`, the melting point came to 91 °C.
In the case of `C=CCn1cc(Br)cnc1=O` it was 142 to 143 °C.
`COc1ccc(CN2C(=O)C(O)(c3cc(CO)ccc3Cl)c3cc(Cl)ccc32)c(OC)c1` (stereo not given): the melting point is 107 °C.
As to `Cc1cc(Cl)cc(C#N)c1`, the melting point was 132 to 133 °C.
In the case of `Cc1ccn(-c2ccc(C(=O)N3Cc4cccn4Cc4ccccc43)c(F)c2)n1` it was 192 to 193 °C.
